Key:
[1] = test system: orthotopic allograft mouse breast cancer model; experiment: Doxorubicin treatment, orthotopic allograft mouse breast cancer model; type: in vivo; conditions: single dose 15 mg/kg, two weeks after administration
Description: Doxorubicin hydrochloride (Sigma) was dissolved in ferromagnetic iron oxide nanoparticles containing stabilizing buffer and then encapsulated into PEGylated liposomes. Three weeks after transplantations of primary cells (average tumour volume 75 mm^3) ferriliposomes loaded with doxorubicin were administered at a dose of 15 mg/kg (Dox+FLt, n=4). Magnets of 0.33 T (diameter 4.5 mm) were glued to the tumour by cyanoacrylate before injection and removed by acetone 24 hours after administration. Control group was treated with systemic administration of doxorubicin without any targeting (Dox, n=4). The horizontal and vertical tumour diameters were measured by digital calliper twice per week and volumes were calculated using the formula V=(a×b2)π/6 where a and b are the longer and shorter diameter of the tumour, respectively.

[2] = set-up: species or system rats; conditions: rat, in vivo, 500 mg/kg
Description: Female rats were treated with 500 mg/kg of iron oxide nanoparticles (n=16) and stabilizing buffer (n=8) as control. […] were sacrificed at day 7 and 12 after injection. Blood was collected and serum separation performed by centrifugation in Li-heparin 0.6 ml flasks (Fuji Photo Film Co., Ltd. Life Science Products Division). Biochemical parameters of creatinine, urea nitrogen, alanine transaminase, aspartate transaminase, creatine phosphokinase and total bilirubin in blood were analyzed by biochemical analyzer Fujifilm DRI CHEM 3500i (Fuji Photo Film Co., Ltd. Life Science Products Division). The kidneys, spleen, liver, heart and lung tissues were collected and fixed in 10% neutral formalin. Organs were dehydrated and maintained in paraffin blocks. 5 μm paraffin sections were stained by hematoxylin and eosin for histo-pathological analysis. iron oxide nanoparticles were detected in animal tissues by Prussian blue staining with carmine (Sigma).

Compound | reduction of tumour volume [1] | histo-pathological analysis of lung, liver, kidney and spleen [2]
COc1cccc2c1C(=O)c1c(O)c3c(c(O)c1C2=O)C[C@@](O)(C(=O)CO)C[C@@H]3O[C@H]1C[C@H](N)[C@H](O)[C@H](C)O1 [doxorubicin] | 60% | –
Fe3O4 [iron oxide nanoparticles] | – | No morphological changes
